The values below come from ChEMBL document CHEMBL1201862, “PubChem BioAssay data set” (2004).

Some test systems named below: NCI/ADR-RES; HCT-15; UO-31; OVCAR-8; ACHN; SK-MEL-2; SN12C; OVCAR-4; Hs-578T; SNB-19; KM12; RPMI-8226; LOX IMVI; IGROV-1; UACC-62; SR; SK-MEL-28; SK-OV-3; HOP-92; U-251.
Common to all, as to experiment: growth of human tumour cells (NCI), 48 h

SMILES strings stand for the structures.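 Values below derive from 48-hour exposures of cells grown in 96-well plates, with endpoints linearly interpolated between the two concentrations bracketing the appropriate inhibition level. Here, GI50 denotes the concentration required for 50% inhibition of growth.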 Active and inactive are the calls of the source. No stated cut-off is given here; in the data, active = GI50 up to about 1.1 µM and inactive = higher.

With `COc1cc(NC(C)=O)ccc1C(=O)N/N=C/c1ccc(Cl)cc1Cl`, the GI50 in the assay with NCI/ADR-RES was > 100 µM (inactive); in the assay with HCT-15, 83 µM; in the assay on UO-31, 43.1 µM (inactive); in the assay on OVCAR-8, 48.9 µM (inactive); with ACHN, 31.4 µM (inactive); with SK-MEL-2 it was 19.2 µM (inactive). The GI50 was 22.4 µM (inactive) in the assay on SN12C; 23.2 µM (inactive) in the assay on OVCAR-4; 32.7 µM (inactive) in the assay with Hs-578T; 42.8 µM (inactive) with SNB-19; 33 µM (inactive) in the assay with KM12; 65.6 µM (inactive) in the assay with RPMI-8226. Moreover, the GI50 with LOX IMVI is 69.2 µM (inactive); with IGROV-1, 30.2 µM (inactive); with UACC-62 it was 31.6 µM (inactive); in the assay on SR it was 18.2 µM (inactive); with SK-MEL-28, 59.4 µM (inactive); in the assay on SK-OV-3, 29.7 µM (inactive). Besides, the GI50 in the assay with HOP-92 was 35.4 µM (inactive).

Consider `CC(=O)C(=NNc1ccc(-n2c(C)nc3ccc(Br)cc3c2=O)cc1)C(C)=O`, for which the GI50 was 54.1 µM (inactive) in the assay with NCI/ADR-RES; greater than 100 µM in the assay with HCT-15; > 100 µM (inactive) in the assay with UO-31; 53.7 µM (inactive) with OVCAR-8; 58.2 µM (inactive) in the assay with U-251; 98.4 µM (inactive) in the assay on ACHN. The GI50 in the assay with SK-MEL-2 was > 100 µM (inactive); with SN12C, > 100 µM (inactive); with Hs-578T it was 26.7 µM (inactive); in the assay with SNB-19 it was 45.6 µM (inactive); in the assay with KM12, > 100 µM (inactive); with RPMI-8226, 50.4 µM (inactive). Moreover, the GI50 was > 100 µM (inactive) with LOX IMVI; > 100 µM (inactive) with IGROV-1; 82.4 µM (inactive) with UACC-62; > 100 µM (inactive) in the assay on SR; > 100 µM (inactive) in the assay with SK-MEL-28; > 100 µM (inactive) in the assay on SK-OV-3. The GI50 in the assay on HOP-92 is 74.3 µM (inactive).

In the case of `Cc1cc2[nH]c3[nH]c(=O)[nH]c(=O)c3c2cc1C`, the GI50 is > 100 µM (inactive) in the assay with NCI/ADR-RES; greater than 100 µM with HCT-15; > 100 µM (inactive) with UO-31; > 100 µM (inactive) in the assay with OVCAR-8; > 100 µM (inactive) with ACHN; 74.5 µM (inactive) in the assay on SK-MEL-2. The GI50 with SN12C was > 100 µM (inactive); in the assay with Hs-578T, 69 µM (inactive); in the assay on SNB-19 it was 89.3 µM (inactive); in the assay on KM12 it was > 100 µM (inactive); in the assay with RPMI-8226, > 100 µM (inactive); in the assay on LOX IMVI, > 100 µM (inactive). Besides, the GI50 in the assay with IGROV-1 is > 100 µM (inactive); in the assay on UACC-62 it was 97.1 µM (inactive); in the assay with SR, 27.1 µM (inactive); with SK-OV-3, > 100 µM (inactive); in the assay with HOP-92, > 100 µM (inactive).

Turning to `CCOC(=O)C1(C(=O)OCC)Nc2cccnc2N(C)N1`, the GI50 with NCI/ADR-RES is 20 µM (inactive); in the assay with HCT-15, 18 µM; in the assay on UO-31, 17.4 µM (inactive); with OVCAR-8, 18.5 µM (inactive); in the assay with U-251 it was 20.8 µM (inactive); with SK-MEL-2, 19.3 µM (inactive). In addition, the GI50 is 19.1 µM (inactive) in the assay on SN12C; 17.7 µM (inactive) in the assay with OVCAR-4; > 100 µM (inactive) with Hs-578T; > 100 µM (inactive) in the assay on SNB-19; 50.1 µM (inactive) in the assay on KM12; 16.2 µM (inactive) in the assay with RPMI-8226. Besides, the GI50 in the assay with LOX IMVI was 25.4 µM (inactive); in the assay with IGROV-1 it was 22.8 µM (inactive); in the assay on UACC-62, 18 µM (inactive); with SR, 37.1 µM (inactive); in the assay on SK-MEL-28, 21.9 µM (inactive); in the assay on SK-OV-3 it was > 100 µM (inactive). Moreover, in the assay with HOP-92, the GI50 was 14.7 µM (inactive).

For `C=C1C(C2(C)C(OC(C)=O)CC(=O)OC(C)(COC(C)=O)C2CC(=O)OC)C(OC=O)C(OC(=O)C(O)C(C)CC)C2(C)C(c3ccoc3)CC(=O)C12O` (centres undefined), the GI50 is 45.9 µM (inactive) with NCI/ADR-RES; 4.8 µM with HCT-15; 3.77 µM (inactive) in the assay with UO-31; 10.2 µM (inactive) in the assay on OVCAR-8; 3.86 µM (inactive) with U-251; 4.2 µM (inactive) in the assay with ACHN. The GI50 with SK-MEL-2 was > 31.4 µM (inactive); with SN12C, 10.8 µM (inactive); with OVCAR-4 it was 6.28 µM (inactive); with Hs-578T it was 8.05 µM (inactive); in the assay on KM12 it was 3.23 µM (inactive); in the assay on RPMI-8226 it was > 100 µM (inactive). The GI50 with LOX IMVI was 3.82 µM (inactive); in the assay with IGROV-1, 2.52 µM (inactive); with UACC-62 it was > 30.7 µM (inactive); with SR it was 5.36 µM (inactive); in the assay with SK-MEL-28 it was 10.8 µM (inactive); in the assay with SK-OV-3 it was 0.78 µM (active). Further, the GI50 with HOP-92 is 7.35 µM (inactive).

Turning to `NC(=O)CSc1c2cc(O)ccc2nc2ccc(O)cc12`, the GI50 in the assay with NCI/ADR-RES was > 10 µM (inactive); with HCT-15, greater than 10 µM; in the assay on OVCAR-8 it was > 10 µM (inactive); in the assay with U-251, > 10 µM (inactive); in the assay with ACHN, > 10 µM (inactive); with SK-MEL-2, > 10 µM (inactive). The GI50 with SN12C, in the assay with OVCAR-4, in the assay on Hs-578T, in the assay with SNB-19, with KM12 and with RPMI-8226 was > 10 µM (inactive) throughout. In addition, the GI50 with LOX IMVI, in the assay with IGROV-1, in the assay with UACC-62, in the assay with SR, in the assay on SK-MEL-28 and in the assay with SK-OV-3 was > 10 µM (inactive) in each case. Also, the GI50 in the assay with HOP-92 was > 10 µM (inactive).

In the case of `COc1ccc(C(=O)N(Cc2cccnc2)C(=S)N(Cc2cccnc2)C(=O)c2ccc(OC)cc2)cc1`, the GI50 in the assay on NCI/ADR-RES was 75.2 µM (inactive); in the assay with HCT-15, greater than 100 µM; in the assay on OVCAR-8 it was 66.8 µM (inactive); in the assay with U-251 it was 55.2 µM (inactive); with ACHN, > 100 µM (inactive); in the assay on SK-MEL-2, > 100 µM (inactive). The GI50 was > 100 µM (inactive) in the assay on SN12C; 37.4 µM (inactive) in the assay with OVCAR-4; > 100 µM (inactive) with Hs-578T; 40.3 µM (inactive) in the assay on SNB-19; 70.8 µM (inactive) in the assay with KM12; > 100 µM (inactive) in the assay with RPMI-8226. In addition, the GI50 was > 100 µM (inactive) in the assay with LOX IMVI; > 100 µM (inactive) with UACC-62; > 100 µM (inactive) with SR; > 100 µM (inactive) in the assay on SK-MEL-28; 67.3 µM (inactive) in the assay with SK-OV-3; 36.6 µM (inactive) with HOP-92.

On to `N=C(N)Nc1nc2cc([N+](=O)[O-])ccc2[nH]1`, for which the GI50 with NCI/ADR-RES is 58.5 µM (inactive); in the assay on HCT-15 it was greater than 100 µM; in the assay with UO-31 it was 93.8 µM (inactive); with OVCAR-8, > 100 µM (inactive); in the assay on U-251, 91.4 µM (inactive); with ACHN it was > 100 µM (inactive). Moreover, the GI50 in the assay on SK-MEL-2 was > 100 µM (inactive); in the assay with SN12C, 86.1 µM (inactive); with OVCAR-4, > 100 µM (inactive); in the assay with Hs-578T, > 100 µM (inactive); in the assay on SNB-19 it was > 100 µM (inactive); with KM12, 37.3 µM (inactive). Besides, the GI50 in the assay on RPMI-8226 is > 100 µM (inactive); in the assay with LOX IMVI, > 100 µM (inactive); with IGROV-1, > 100 µM (inactive); in the assay with UACC-62, 55.1 µM (inactive); with SR, > 100 µM (inactive); in the assay with SK-MEL-28 it was > 100 µM (inactive). Besides, the GI50 with SK-OV-3 and in the assay on HOP-92 was > 100 µM (inactive) in each case.

On to `CC(C)(C)c1ccc(-c2nc3ccccc3c(=O)o2)cc1`, for which the GI50 with NCI/ADR-RES was 55.2 µM (inactive); with HCT-15, 37.5 µM; in the assay on UO-31, 43.1 µM (inactive); in the assay on OVCAR-8 it was 47.4 µM (inactive); with U-251, 40.6 µM (inactive); with ACHN it was 33.7 µM (inactive). Also, the GI50 in the assay with SK-MEL-2 is 22.8 µM (inactive); in the assay with SN12C, 34.3 µM (inactive); in the assay with OVCAR-4 it was 35.7 µM (inactive); in the assay on Hs-578T, 68.7 µM (inactive); with SNB-19, 43.1 µM (inactive); with KM12, 29.1 µM (inactive). The GI50 with RPMI-8226 is 25.5 µM (inactive); in the assay on LOX IMVI it was 18.7 µM (inactive); in the assay with IGROV-1, 37.3 µM (inactive); in the assay on UACC-62, 30.3 µM (inactive); with SR it was 22.5 µM (inactive); in the assay on SK-MEL-28, 42.5 µM (inactive). In addition, the GI50 with SK-OV-3 is 83.4 µM (inactive); in the assay on HOP-92, 28 µM (inactive).

In the case of `C=C(C)[C@H]1C2=CC(C)=C(O2)[C@@H](O)[C@H](C(=C)C)CCC2=C[C@H]1OC2=O` [KALLOLIDE A], the GI50 in the assay on NCI/ADR-RES is > 100 µM (inactive); with HCT-15 it was greater than 100 µM; in the assay with UO-31 it was > 100 µM (inactive); in the assay with OVCAR-8 it was > 100 µM (inactive); in the assay on U-251, > 100 µM (inactive); with ACHN it was > 100 µM (inactive). The GI50 in the assay on SK-MEL-2, with SN12C, in the assay on OVCAR-4, in the assay with Hs-578T, in the assay with SNB-19 and with KM12 was > 100 µM (inactive) throughout. Further, the GI50 with RPMI-8226 is > 100 µM (inactive); in the assay on LOX IMVI, > 100 µM (inactive); in the assay on IGROV-1, > 100 µM (inactive); in the assay with UACC-62 it was > 100 µM (inactive); in the assay with SR, 99.5 µM (inactive); with SK-MEL-28, > 100 µM (inactive). Further, in the assay on HOP-92, the GI50 is > 100 µM (inactive).
